From PubChem BioAssay AID623940 (Vanderbilt Specialized Chemistry Center, 2012)
Activity calls are given as the source filed them.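 The calls were made as follows: active = a response that changes with dose, reported with a potency and a percent of the peak acetylcholine response; inactive = the rest.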

molecular target: Muscarinic acetylcholine receptor M1 (Rattus norvegicus) (UniProt P08482); assay: rat M1 muscarinic receptor PAM counter-screen, SAR follow-up, selectivity assay for M4 PAM optimization project, CHO cells, Fluo-4 calcium, ACh EC20 (AID 623940); details: CHO rat M1, Fluo-4 calcium, ACh EC20 potentiation
Sequence (P08482 whole entry, looked up): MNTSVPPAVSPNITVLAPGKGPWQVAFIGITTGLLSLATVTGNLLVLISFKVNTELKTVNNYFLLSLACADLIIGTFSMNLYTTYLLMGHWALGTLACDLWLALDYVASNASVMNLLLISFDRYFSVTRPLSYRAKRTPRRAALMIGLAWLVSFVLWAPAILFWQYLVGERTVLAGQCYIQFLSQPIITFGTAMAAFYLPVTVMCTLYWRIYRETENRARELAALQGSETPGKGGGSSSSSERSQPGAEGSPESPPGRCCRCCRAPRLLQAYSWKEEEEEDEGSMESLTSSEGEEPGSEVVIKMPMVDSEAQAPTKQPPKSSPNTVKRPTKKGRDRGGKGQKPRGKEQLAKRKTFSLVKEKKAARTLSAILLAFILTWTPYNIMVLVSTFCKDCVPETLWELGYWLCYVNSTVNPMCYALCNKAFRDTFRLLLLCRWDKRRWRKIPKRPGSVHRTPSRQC

Row | SMILES | outcome | EC50 [nM]
1 | Cc1nc2sc(C(=O)NCc3ccccc3)c(N)c2c(C)c1Cl | inactive | 
2 | Cc1nc2sc(C(=O)NCc3cccnc3)c(N)c2c(C)c1Cl | inactive | 
3 | Cc1nc2sc(C(=O)NC3CC3)c(N)c2c(C)c1Cl |  | 943
4 | Cc1nc2sc(C(=O)NCc3ccc4c(c3)OCO4)c(N)c2c(C)c1Cl | inactive | 
5 | Cc1nc2sc(C(=O)NCc3ccncc3)c(N)c2c(C)c1Cl | inactive | 

same assay, conditions: CHO rat M1, Fluo-4 calcium, ACh EC20 potentiation; at 30 µM (top of the series)

Row | SMILES | percent of ACh max response
6 | Cc1nc2sc(C(=O)NCc3ccncn3)c(N)c2c(C)c1Cl | inactive
7 | Cc1nc2sc(C(=O)NCCc3ccncc3)c(N)c2c(C)c1Cl | inactive
8 | Cc1nc2sc(C(=O)NCc3nccs3)c(N)c2c(C)c1Cl | inactive
9 | COc1ccc(C)c2sc(NC(=O)c3ccncc3)nc12 | inactive
10 | Cc1nc2sc(C(=O)NCc3cccc(F)c3F)c(N)c2c(C)c1Cl | inactive
